Measurements published in article PMC9676231, “Screening and characterization estrogen receptor ligands from Arnebia euchroma (Royle) Johnst. via affinity ultrafiltration LC-MS and molecular docking” (Frontiers in Plant Science, 2022).
Where two headings read alike, the source gives them in different places.

How the values were obtained:
ER α = target: T1, ER α (Homo sapiens, UniProt P03372); experiment: Affinity ultrafiltration LC-MS screening (AUF-LC-MS) of Arnebiae Radix extract against ER α; conditions: specific binding = Aa/Ab (relative peak area active group / denatured group), extract 5.0 mg/ml, ER α 200 µg/ml, 37°C 60 min, <1.5 = non-ligand
T1 construct: purchased Shanghai Tongwei Biotechnology Co., Ltd. (China)
T1 sequence (P03372 1-595): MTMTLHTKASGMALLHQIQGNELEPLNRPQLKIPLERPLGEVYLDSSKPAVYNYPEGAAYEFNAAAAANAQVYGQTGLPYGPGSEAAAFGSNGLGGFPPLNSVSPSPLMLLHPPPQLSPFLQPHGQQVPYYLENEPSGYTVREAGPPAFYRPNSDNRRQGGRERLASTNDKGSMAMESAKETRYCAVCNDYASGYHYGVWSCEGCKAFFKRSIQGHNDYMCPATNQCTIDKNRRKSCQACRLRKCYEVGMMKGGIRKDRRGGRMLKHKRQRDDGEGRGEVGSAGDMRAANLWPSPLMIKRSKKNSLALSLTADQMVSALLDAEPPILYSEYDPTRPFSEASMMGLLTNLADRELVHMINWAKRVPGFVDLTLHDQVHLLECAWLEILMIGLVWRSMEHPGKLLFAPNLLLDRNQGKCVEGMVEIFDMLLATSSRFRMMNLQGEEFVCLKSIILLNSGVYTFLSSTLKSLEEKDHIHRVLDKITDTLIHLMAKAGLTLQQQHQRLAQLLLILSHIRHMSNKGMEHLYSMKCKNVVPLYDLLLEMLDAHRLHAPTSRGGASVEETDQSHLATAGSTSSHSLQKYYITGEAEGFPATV
Procedure: (§1) The above extract was dissolved in DMSO, and the solution was diluted with buffer (pH = 8.0) to a final concentration of 5.0 mg/ml. The sample solution and buffer were successively added to EP tubes. Then buffer, inactivated ER α solution (200 µg/ml, boiled in the water bath for 20 min), and ER α solution (200 µg/ml) were separately added as the blank control group, the denatured control group, and the sample group, respectively. The blank control group and denatured control group were set to exclude some interference factors about background, false positives, and non-specific binding. The group of mixtures was subsequently incubated in the dark at 37°C for 60 min to make a combination balance. Next, each mixture (200 μl) was transferred into an ultrafiltration tube and ultrafiltered at 12,000 rpm for 15 min at 4°C. Then, each group was washed three times with 300 μl of buffer to remove unbound small molecules. Finally, the ligands bound to ER α were dissociated from the complexes by incubating with 300 μl of methanol/water (90/10) for 10 min and then centrifuging at 12,000 rpm for 15 min at room temperature, three times. These ultrafiltrates for each group were dried under nitrogen gas at room temperature and reconstituted in 80 μl of methanol/water (50/50) prior to UHPLC-Q-Exactive Orbitrap MS analysis. All the screening assays were carried out in triplicate. Except for the replacement of the ER, the affinity ultrafiltration screening method of ER β is similar to that of ER α in the other steps.
The analyses are exercised on Q-Exactive Focus Orbitrap MS connected to Thermo Scientific Dionex Ultimate 3000 RS through an ESI source. […] The 0.1% formic acid and acetonitrile were used as the mobile phases A and B, respectively. […] For the MS/MS analysis, the mass spectrometer equipped with an electrospray ionization source was obtained with a resolution of 70,000 detected by the Orbitrap analyzer. In order to comprehensively explore compounds, the positive and negative ion modes were both selected. The mass spectrometry conditions are as follows: electrospray ion source, the spray voltage was 3.5 kV for positive ion mode and 3.2 kV for negative ion mode, sheath gas pressure was 35 arb, auxiliary gas pressure was 10 arb, and the temperature of capillary and auxiliary gas heater was 320°C and 350°C, respectively; and the S-lens RF level was 60. Full-scan data were acquired from m/z 100–1,200 by data-dependent MS^2 scanning or parallel reaction monitoring (PRM) mode. The nitrogen gas served as collision gas, and the energy was set as normalized collision energy 30%. Instrument and data were controlled by the Xcalibur software version 4.2.
Therefore, affinity ultrafiltration can rapidly screen and identify bioactive compounds in complex plant extracts by comparing the changes in peak areas before and after ultrafiltration.

ER β [1] = target: T2, ER β (Homo sapiens, UniProt Q92731); experiment: Affinity ultrafiltration LC-MS screening (AUF-LC-MS) of Arnebiae Radix extract against ER β; conditions: specific binding = Aa/Ab (relative peak area active group / denatured group), extract 5.0 mg/ml, ER β 200 µg/ml, 37°C 60 min, <1.5 = non-ligand
T2 construct: purchased Shanghai Tongwei Biotechnology Co., Ltd. (China)
T2 sequence (Q92731 whole entry): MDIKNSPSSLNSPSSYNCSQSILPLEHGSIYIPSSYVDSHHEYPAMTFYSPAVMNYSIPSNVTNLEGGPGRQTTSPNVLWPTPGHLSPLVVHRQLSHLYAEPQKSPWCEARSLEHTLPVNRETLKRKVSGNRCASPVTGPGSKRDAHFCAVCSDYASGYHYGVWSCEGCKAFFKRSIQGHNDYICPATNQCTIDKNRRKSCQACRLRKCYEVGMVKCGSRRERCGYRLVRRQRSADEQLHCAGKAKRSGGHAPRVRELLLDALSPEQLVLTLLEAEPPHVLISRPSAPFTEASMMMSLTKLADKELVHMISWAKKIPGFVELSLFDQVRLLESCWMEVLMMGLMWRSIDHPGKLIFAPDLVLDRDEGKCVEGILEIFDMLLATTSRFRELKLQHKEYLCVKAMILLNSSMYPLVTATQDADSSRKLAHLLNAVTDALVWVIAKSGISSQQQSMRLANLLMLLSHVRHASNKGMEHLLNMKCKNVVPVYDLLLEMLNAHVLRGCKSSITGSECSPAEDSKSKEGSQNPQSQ
Procedure: as §1
The analyses are exercised on Q-Exactive Focus Orbitrap MS connected to Thermo Scientific Dionex Ultimate 3000 RS through an ESI source. For the chromatographic separation, a Thermo Scientific Hypersil GOLD™ aQ (100 mm × 2.1 mm, 1.9 μm) was applied at the flow rate of 0.3 ml/min. The 0.1% formic acid and acetonitrile were used as the mobile phases A and B, respectively. The optimized UHPLC elution procedures were conducted as follows: 0–2 min, 95%–90% A; 2–5 min, 90%–80% A; 5–10 min, 80%–75% A; 10–15 min, 75%–50% A; 15–25 min, 50%–45% A; 25–40 min, 45%–20% A; 40–45 min, 20%–5% A; 45–45.1 min, 5%–95% A; 45–50 min, 95% A. The column temperature was maintained at 35°C. For the MS/MS analysis, the mass spectrometer equipped with an electrospray ionization source was obtained with a resolution of 70,000 detected by the Orbitrap analyzer. In order to comprehensively explore compounds, the positive and negative ion modes were both selected. The mass spectrometry conditions are as follows: electrospray ion source, the spray voltage was 3.5 kV for positive ion mode and 3.2 kV for negative ion mode, sheath gas pressure was 35 arb, auxiliary gas pressure was 10 arb, and the temperature of capillary and auxiliary gas heater was 320°C and 350°C, respectively; and the S-lens RF level was 60. Full-scan data were acquired from m/z 100–1,200 by data-dependent MS^2 scanning or parallel reaction monitoring (PRM) mode. The nitrogen gas served as collision gas, and the energy was set as normalized collision energy 30%. Instrument and data were controlled by the Xcalibur software version 4.2.
Therefore, affinity ultrafiltration can rapidly screen and identify bioactive compounds in complex plant extracts by comparing the changes in peak areas before and after ultrafiltration. […] According to literature reports ([Munigunti et al., 2011]), compounds whose specific binding values were less than 1.5 were considered as non-ligands.

ER β [2] = target: T2, ER β; experiment: SPR binding measurements (Biacore T200) on immobilized ER β; conditions: for kon: read-out: Ka (association rate constant); for koff: read-out: Kd (dissociation rate constant)
Procedure: SPR binding measurements were performed using a Biacore T200 biosensor system (Cytiva, USA). All the SPR-based materials were acquired from Cytiva.
ER β was dissolved in PBS at 1.0 mg/ml and was then diluted in 20 μg/ml sodium acetate buffer at pH 5.0 and immobilized on a CM5 chip using an amine coupling kit. Sulfo-NHS (0.1 mol/l) and EDC (0.4 mol/l) with a 1:1 volume ratio were mixed at 25°C and flowed through a chip channel at 10 μl/min. ERβ was flowed through the chip channel at the same flow rate and reacted with the activated carboxyl groups on the chip for 600 s. Ethanolamine hydrochloride flowed through the chip channel at the same flow rate for 360 s.
Sensor preparation and interaction analyses were performed at 25°C in the PBS running buffer. Each analyte was dissolved in DMSO at 1 mg/ml and then dissolved in the running buffer at 0.20, 0.39, 0.78, 1.56, 3.13, 6.25, 12.5, and 25 μg/ml for SPR measurements.
The running buffer was used as the blank control. Eight groups of gradient concentrations of the same analyte (and the blank control) were flowed through the immobilized channel at a flow rate of 30 μl/min, with an association time of 180s and a dissociation time of 300 s. The collected signals were monitored in real time, and a reference flow cell without immobilized ER β served as a non-specific binding control. The rate constants of association and dissociation were calculated by the non-linear fitting method including the simultaneous fitting for the association and dissociation phases in each sensorgram in Biacore Evaluation Software version 3.2.1 (Cytiva, USA).

thrombin = target: thrombin; set-up: method as in Wang et al., 2017; conditions: SPR, direct interaction with thrombin; ref Wang et al., 2017; cited from earlier work
[3] = SPR, ER β on CM5 chip, 25°C, PBS running buffer, read-out: KD
[4] = SPR, ER β on CM5 chip, 25°C, PBS running buffer

Compound | Specific binding (ER α) | Specific binding (ER β [1]) | Rmax (ER β [2]; SPR, ER β on CM5 chip, 25°C) | Kd (ER β [2]; [3]) | further results
O=C(O)CCCCC(=O)O [Adipic acid] | 5.77 | – | – | – | –
O=C(O)CC(O)(CC(=O)O)C(=O)O [Citric acid] | 5.02 | 1.78 | – | – | –
CC(C)=CCCC1=CC(=O)c2c(O)ccc(O)c2C1=O [Deoxyshikonin] | 2.28 | – | – | – | –
O=c1c(O[C@@H]2O[C@H](CO)[C@@H](O)[C@H](O)[C@H]2O)c(-c2ccc(O)c(O)c2)oc2cc(O)cc(O)c12 [Isoquercitrin] | – | 1.91 | 9.57 RU | 1040 nM | kon (ER β [2]; [4]): 3020 M⁻¹ s⁻¹; koff (ER β [2]; [4]): 0.00314 s⁻¹
O=C(O)CC(O)C(=O)O (stereo not shown) [Malic acid] | – | 2.20 | – | – | –
CCCC[C@H](N)C(=O)O [Norleucine] | – | 2.29 | – | – | –
O=c1c(O)c(-c2ccc(O)c(O)c2)oc2cc(O)cc(O)c12 [Quercetin] | – | 1.54 | 13.28 RU | 1260 nM | kon (ER β [2]): 2950 M⁻¹ s⁻¹; koff (ER β [2]): 0.00372 s⁻¹
O=C(/C=C/c1ccc(O)c2c1[C@H](C(=O)O[C@H](Cc1ccc(O)c(O)c1)C(=O)O)[C@@H](c1ccc(O)c(O)c1)O2)O[C@H](Cc1ccc(O)c(O)c1)C(=O)O [Salvianolic acid B] | – | 2.24 | 3.51 RU | – | Kd (ER β [2]): 2320 nM; kon (ER β [2]; [4]): 788 M⁻¹ s⁻¹; koff (ER β [2]; [4]): 0.00183 s⁻¹
COc1ccc2cc3[n+](cc2c1OC)CCc1cc2c(cc1-3)OCO2 [berberine] | – | – | – | – | Kd (thrombin): 16400 nM

More lines, main results first:

Specific binding (ER α) | Specific binding (ER β [1]) | Rmax (ER β [2]; SPR, ER β on CM5 chip, 25°C) | Kd (ER β [2]; [3]) | Compound | further results
6.36 | 2.39 | – | – | N[C@@H](Cc1ccccc1)C(=O)O [Phenylalanine] | –
– | 2.66 | 4.41 RU | 1320 nM | O=C(/C=C/c1ccc(O)c(O)c1)O[C@H](Cc1ccc(O)c(O)c1)C(=O)O [Rosmarinic acid] | kon (ER β [2]; [4]): 2020 M⁻¹ s⁻¹; koff (ER β [2]; [4]): 0.00266 s⁻¹
– | – | 7.78 RU | 934 nM | C[C@@H]1O[C@@H](OC[C@H]2O[C@@H](Oc3c(-c4ccc(O)c(O)c4)oc4cc(O)cc(O)c4c3=O)[C@H](O)[C@@H](O)[C@@H]2O)[C@H](O)[C@H](O)[C@H]1O [Rutin] | –
– | 1.75 | 12.6 RU | 1980 nM | O=C(/C=C/c1ccc(O)c2oc(-c3ccc(O)c(O)c3)cc12)O[C@H](Cc1ccc(O)c(O)c1)C(=O)O [Salvianolic acid C] | kon (ER β [2]; [4]): 1390 M⁻¹ s⁻¹; koff (ER β [2]; [4]): 0.00276 s⁻¹
2.15 | – | – | – | COc1ccc(C2COc3cc(O)ccc3C2)c(OC)c1 (stereo not shown) [Sativan] | –
